Laboratory results as given in patent publication US20090029997A1, “Thiazole Derivatives and Use Thereof” (LABORATOIRES SERONO SA, priority 2006, published 2009).

Tests used:
[1] = target: Human recombinant GST-PI3Kγ (Homo sapiens, UniProt P48736); test: High throughput PI3K lipid kinase assay (SPA, neomycin-coated beads); type: biochemical; settings: 180 min at room temperature
From the text: a) High Throughput PI3K Lipid Kinase Assay (Binding Assay):
The efficacy of compounds of the invention in inhibiting the PI3K induced-lipid phosphorylation may be tested in the following binding assay.
The assay combines the scintillation proximity assay technology (SPA, Amersham) with the capacity of neomycin (a polycationic antibiotic) to bind phospholipids with high affinity and specificity. The Scintillation Proximity Assay is based on the properties of weakly emitting isotopes (such as ^3H, ^125I, ^33P). Coating SPA beads with neomycin allows the detection of phosphorylated lipid substrates after incubation with recombinant PI3K and radioactive ATP in the same well, by capturing the radioactive phospholipids to the SPA beads through their specific binding to neomycin.
To a 384 wells MTP containing 5 μl of the test compound of Formula (I) (solubilized in 6% DMSO; to yield a concentration of 100, 30, 10, 3, 1, 0.3, 0.1, 0.03, 0.01, 01 μM of the test compound), the following assay components are added. 1) 5 μl (58 ng) of Human recombinant GST-PI3Kγ (in Hepes 40 mM, pH 7.4, DTT 1 mM and ethyleneglycol 5%) 2) 10 μl of lipid micelles and 3) 10 μl of Kinase buffer ([^33P]γ-ATP 45 μM/60 nCi, MgCl2 30 mM, DTT 1 mM, β-Glycerophosphate 1 mM, Na3VO4 100 μM, Na Cholate 0.3%, in Hepes 40 mM, pH 7.4). After incubation at room temperature for 180 minutes, with gentle agitation, the reaction is stopped by addition of 60 μl of a solution containing 100 μg of neomycin-coated PVT SPA beads in PBS containing ATP 10 mM and EDTA 5 mM. The assay is further incubated at room temperature for 60 minutes with gentle agitation to allow binding of phospholipids to neomycin-SPA beads. After precipitation of the neomycin-coated PVT SPA beads for 5 minutes at 1500×g, radioactive PtdIns(3)P is quantified by scintillation counting in a Wallac MicroBeta™ plate counter.
The values indicated in Table I below refer to the IC50 (μM) with respect to PI3Kγ, i.e. the amount necessary to achieve 50% inhibition of said target. Said values show a considerable inhibitory potency of thiazole compounds with regard to PI3Kγ.

[2] = test system: Akt/PKB phosphorylation in Raw 264-7 macrophages; test: Cell based ELISA of Akt/PKB phosphorylation after Complement 5a stimulation; settings: Mus musculus, RAW264.7, 50 nM Complement 5a for 5 minutes, inhibitor pretreatment 20 minutes, read-out: Cell Assay (P-Akt, Elisa) IC50
Procedure: b) Cell Based ELISA to Monitor PI3K Inhibition:
The efficacy of compounds of the invention in inhibiting the PI3K induced Akt/PKB phosphorylation may be tested in the following cell based assay.
Measurement of Akt/PKB phosphorylation in macrophages after stimulation with Complement 5a: Raw 264: Raw 264-7 macrophages (cultured in DMEM-F12 medium containing 10% Fetal Calf serum and antibiotics) are plated at 20'000 cells/well in a 96 MTP 24 h before cell stimulation. Prior to the stimulation with 50 nM of Complement 5a during 5 minutes, Cells are serum starved for 2 h, and pretreated with inhibitors for 20 minutes. After stimulation cells are fixed in 4% formaldehyde for 20 minutes and washed 3 times in PBS containing 1% Triton X-100 (PBS/Triton). […] Next, phosphorylated Akt/PKB is detected by an overnight incubation at 4° C. with primary antibody (anti phospho Serine 473 Akt IHC, Cell Signaling) diluted 800-fold in PBS/Triton, containing 5% bovine serum albumin (BSA). After 3 washes in PBS/Triton, cells are incubated for 60 minutes with a peroxidase conjugated goat-anti-rabbit secondary antibody (1/400 dilution in PBS/Triton, containing 5% BSA), washed 3 times in PBS/Triton, and 2 times in PBS and further incubated in 100 μl of luminescent substrate reagent solution (Pierce) for 2 minutes, followed by the reading (1 s/well). […]

Class I PI3-kinases = settings: Fruman et al., 1998; read-out: IC50 against each of the various Class I PI3-kinases; cited from earlier work

Sequence of Human recombinant GST-PI3Kγ (P48736 whole entry): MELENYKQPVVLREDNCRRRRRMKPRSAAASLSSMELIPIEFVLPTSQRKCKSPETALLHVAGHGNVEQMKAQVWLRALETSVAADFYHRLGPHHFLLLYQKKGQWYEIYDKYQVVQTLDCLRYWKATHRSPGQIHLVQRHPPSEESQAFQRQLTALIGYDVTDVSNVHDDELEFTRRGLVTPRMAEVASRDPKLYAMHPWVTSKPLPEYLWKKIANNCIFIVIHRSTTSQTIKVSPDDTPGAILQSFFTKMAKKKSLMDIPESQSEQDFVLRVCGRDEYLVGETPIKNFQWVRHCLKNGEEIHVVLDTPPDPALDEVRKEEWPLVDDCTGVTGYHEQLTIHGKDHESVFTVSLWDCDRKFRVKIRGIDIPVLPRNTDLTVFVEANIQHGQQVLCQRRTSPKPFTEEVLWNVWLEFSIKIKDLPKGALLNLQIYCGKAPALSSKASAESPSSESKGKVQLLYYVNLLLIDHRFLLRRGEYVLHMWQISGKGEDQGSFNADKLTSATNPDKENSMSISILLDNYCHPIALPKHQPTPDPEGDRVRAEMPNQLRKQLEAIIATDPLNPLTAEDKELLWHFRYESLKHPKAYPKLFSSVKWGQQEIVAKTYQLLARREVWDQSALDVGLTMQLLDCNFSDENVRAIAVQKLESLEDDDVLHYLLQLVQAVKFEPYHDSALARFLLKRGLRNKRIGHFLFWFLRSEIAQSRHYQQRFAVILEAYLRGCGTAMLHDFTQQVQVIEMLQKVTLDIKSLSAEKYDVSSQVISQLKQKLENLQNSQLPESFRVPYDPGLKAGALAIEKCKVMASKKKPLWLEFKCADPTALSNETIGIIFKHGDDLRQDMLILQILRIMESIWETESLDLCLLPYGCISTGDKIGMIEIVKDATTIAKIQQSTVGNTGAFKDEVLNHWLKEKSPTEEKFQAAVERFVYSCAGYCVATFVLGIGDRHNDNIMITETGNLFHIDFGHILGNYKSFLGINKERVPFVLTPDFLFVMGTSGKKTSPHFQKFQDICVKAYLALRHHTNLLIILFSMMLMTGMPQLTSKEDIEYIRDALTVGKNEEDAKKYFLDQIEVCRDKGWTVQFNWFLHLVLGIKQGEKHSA

| IC50 [1] [nM] | IC50 [2] [nM] | Molecule | IC50 (Class I PI3-kinases) [nM] |
| --- | --- | --- | --- |
| 282 |  | COc1ccc(S(=O)(=O)n2cc(-c3sc(NC(C)=O)nc3C)cn2)cn1 [Example 7, N-(5-{1-[(6-methoxypyridin-3-yl)sulfonyl]-1H-pyrazol-4-yl}-4-methyl-1,3-thiazol-2-yl)acetamide] |  |
| 111 | 850 | CC(=O)Nc1nc(C)c(-c2cnn(S(=O)(=O)c3cn(C)cn3)c2)s1 [Example 8, N-(4-methyl-5-{1-[(1-methyl-1H-imidazol-4-yl)sulfonyl]-1H-pyrazol-4-yl}-1,3-thiazol-2-yl)acetamide] |  |
| 708 |  | CC(=O)Nc1nc(C)c(-c2cnn(S(=O)(=O)c3ccc(C(=O)O)cc3)c2)s1 [Example 14, 4-({4-[2-(acetylamino)-4-methyl-1,3-thiazol-5-yl]-1H-pyrazol-1-yl}sulfonyl)benzoic acid] |  |

The remaining lines, values behind:

| Molecule | IC50 [1] [nM] | IC50 [2] [nM] | IC50 (Class I PI3-kinases) [nM] |
| --- | --- | --- | --- |
| CC(=O)Nc1nc(C)c(-c2cnn(C)c2)s1 [Example 1, N-[4-methyl-5-(1-methyl-1H-pyrazol-4-yl)-1,3-thiazol-2-yl]acetamide] | 1340 |  |  |
| CC(=O)Nc1nc(C)c(-c2cn[nH]c2)s1 [Example 3, N-[4-methyl-5-(1H-pyrazol-4-yl)-1,3-thiazol-2-yl]acetamide] | 413 |  |  |
| CC(=O)Nc1nc(C)c(-c2cnn(C(=O)NCCN(C)C)c2)s1 [Example 5, 4-[2-(acetylamino)-4-methyl-1,3-thiazol-5-yl]-N-[2-(dimethylamino)ethyl]-1H-pyrazole-1-carboxamide] | 1230 |  |  |
| wortmannin |  |  | 1 to 10 |
